In series [1] the test system is A549 (human lung cancer) cell line. The series is described as follows: MTT cell proliferation (cytotoxicity) assay, A549. It is filed as cell-based. To be noted: average of two separate determinations. On the procedure: (§1) Taking GDC-0941 as reference compound, the target compounds […], 12a–j, 13a–g and 14a–g ere evaluated for the cytotoxicity against the three cancer cell lines A549, PC-3 and MCF-7 usg 3-(4,5-dimethylthiazolyl-2)-2,5-diphenyltetrazolium bromide (MTT) cell proliferation assays. In addition, one selected compounds 12h was fher evaluated for PI3Kα kinase inhibitory activity. The results, expressed as IC50 values or inhibitory rate, are sumrized in Table 1, Table 2 and Table 3.
(§2) The in vitro cytotoxic activities of all the compounds 11a–11j, 12a–12j, 13a–13g and 14a–14g was evaluated with A549, PC-3 and MCF-7 cell lines by the standard MTT assay, with GDC-0941 as positive control. The cancer cell lines were cultured in minimum essential medium (MEM) supplement with 10% fetal bovine serum (FBS). Approximately 4 × 10^3 cells, suspended in MEM medium, were plated onto each well of a 96-well plate and incubated in 5% CO2 at 37 °C for 24 h. The test compounds at indicated final concentrations were added to the culture medium and the cell cultures were continued for 72 h. Fresh MTT was added to each well at a terminal concentration of […] and incubated with cells at 37 °C for 4 h. The formazan crystals were dissolved in 100 µL DMSO each well, and the absorbency at 492 nm (for absorbance of MTT formazan) and 630 nm (for the reference wavelength) was measured with an ELISA reader. All of the compounds were tested three times in each of the cell lines. The results expressed as inhibition rates or IC50 (half-maximal inhibitory concentration) were the averages of two determinations and calculated by using the Bacus Laboratories Inc. Slide Scanner (Bliss) software (the Bacus Laboratories Inc. Slide Scanner (BLISS) system, Lombard, IL, USA).

For series [2], the system named is PC-3 (human prostatic cancer) cell line. Kind of series: MTT cell proliferation (cytotoxicity) assay, PC-3. The note with it: 72 h, average of two separate determinations. It counts as cell-based. As to the method:
as §1, §2

In series [3] the test system is MCF-7 (human breast cancer) cell line. Kind of series: MTT cell proliferation (cytotoxicity) assay, MCF-7. To be noted: average of two separate determinations. It counts as cell-based. On the procedure: as §1, §2
The mark [4] stands for this setting: Homo sapiens, A549, 72 h, Table 1.
[5] abbreviates: Homo sapiens, MCF7, 72 h, Table 1.
The mark [6] stands for this setting: Homo sapiens, A549, 72 h, Table 2.
The mark [7] stands for this setting: Homo sapiens, MCF7, 72 h, Table 2.

Some results are limits rather than exact numbers.

As for `O=C(Nc1ccc(-c2nc3c(c(N4CCOCC4)n2)CSCC3)cc1)c1cc(-c2cccc(F)c2)ccn1` [Compound 11b, N-(4-(4-Morpholino-7,8-dihydro-5H-thiopyrano[4,3-d]pyrimidin-2-yl)phenyl)-4-(3-fluorophenyl)pyridine amide], the melting point (commonly the temperature, or range, at which the solid turns liquid) fell in the range of 236.5 to 238.4 °C. Moreover, the IC50 (as a rule, the point on the concentration scale where inhibition reaches its midpoint) in series [1] (setting [4]) was 48.08 ± 0.13 µM. In series [2] (Homo sapiens, Table 1), this molecule showed a 50% inhibitory concentration (IC50) of 60.3 ± 1.24 µM. Also, half-maximal inhibition in series [3] (setting [5]) (IC50) was put at 51.7 ± 1.56 µM.

The molecule `O=C(Nc1ccc(-c2nc3c(c(N4CCOCC4)n2)CSCC3)cc1)c1cc(-c2ccc(F)cc2F)ccn1` [Compound 11c, N-(4-(4-Morpholino-7,8-dihydro-5H-thiopyrano[4,3-d]pyrimidin-2-yl)phenyl)-4-(2,4-difluorophenyl) picolinamide] had a melting point of 235 to 236.7 °C.

`O=C(Nc1ccc(-c2nc3c(c(N4CCOCC4)n2)CSCC3)cc1)c1cc(-c2ccc(C(F)(F)F)cc2)ccn1` [Compound 11d, N-(4-(4-Morpholino-7,8-dihydro-5H-thiopyrano[4,3-d]pyrimidin-2-yl)phenyl)-4-(4-trifluoromethylphenyl) picolinamide] gave a melting point of 229.3 to 231.7 °C. This molecule also had an IC50 in series [1] (setting [4]) of 43.46 ± 0.12 µM. The IC50 in series [3] (setting [5]) came out at 50.3 ± 2.18 µM.

`O=C(Nc1ccc(-c2nc3c(c(N4CCOCC4)n2)CSCC3)cc1)c1cc(-c2ccc(Cl)cc2)ccn1` [Compound 11e, N-(4-(4-Morpholino-7,8-dihydro-5H-thiopyrano[4,3-d]pyrimidin-2-yl)phenyl)-4-(4-chlorophenyl)pyridine amide] yielded a melting point of 235.3 to 236.2 °C. Also, in series [1] (setting [4]), it took 19.3 ± 0.86 µM to reach half-maximal inhibition (IC50). Also, the IC50 in series [2] (Homo sapiens, Table 1) is 23.2 ± 0.76 µM. For the same molecule, in series [3] (setting [5]), the IC50 came out at 20.9 ± 1.02 µM.

Take `O=C(Nc1ccc(-c2nc3c(c(N4CCOCC4)n2)CSCC3)cc1)c1cc(-c2ccc(F)cc2)ccn1` [Compound 11f, N-(4-(4-Morpholino-7,8-dihydro-5H-thiopyrano[4,3-d]pyrimidin-2-yl)phenyl)-4-(4-fluorophenyl)pyridine amide]: the melting point was 248.1 to 249.6 °C.

In turn, `Cc1ccc(-c2ccnc(C(=O)Nc3ccc(-c4nc5c(c(N6CCOCC6)n4)CSCC5)cc3)c2)cc1` [Compound 11g, N-(4-(4-Morpholino-7,8-dihydro-5H-thiopyrano[4,3-d]pyrimidin-2-yl)phenyl)-4-(4-methylphenyl) picolinamide] returned a melting point of 275 to 276.8 °C.

On to `CCc1ccc(-c2ccnc(C(=O)Nc3ccc(-c4nc5c(c(N6CCOCC6)n4)CSCC5)cc3)c2)cc1` [Compound 11h, N-(4-(4-Morpholino-7,8-dihydro-5H-thiopyrano[4,3-d]pyrimidin-2-yl)phenyl)-4-(4-ethylphenyl) picolinamide], for which the melting point was in the range of 229.8 to 232.1 °C.

Turning to `COc1ccc(-c2ccnc(C(=O)Nc3ccc(-c4nc5c(c(N6CCOCC6)n4)CSCC5)cc3)c2)cc1` [Compound 11i, N-(4-(4-Morpholino-7,8-dihydro-5H-thiopyrano[4,3-d]pyrimidin-2-yl)phenyl)-4-(4methoxyphenyl) pyridine-carboxamide], the melting point was 233.6 to 235.1 °C. The IC50 in series [1] (setting [4]) was determined as 27.68 ± 0.1 µM. Half-maximal inhibition in series [2] (Homo sapiens, Table 1) (IC50) was put at 65.66 ± 0.61 µM. This molecule displayed an IC50 in series [3] (setting [5]) of 32.4 ± 1.84 µM.

On to `O=C(Nc1ccc(-c2nc3c(c(N4CCOCC4)n2)CS(=O)(=O)CC3)cc1)c1cc(-c2ccccc2)ccn1` [Compound 12a, N-(4-(4-Morpholino-7,8-dihydro-6,6-dioxide-5H-thiopyrano[4,3-d]pyrimidin-2-yl)phenyl)-4-phenylpyridine Amide], for which the melting point lay within 229 to 233.8 °C. Further, the 50% inhibitory concentration (IC50) in series [2] (Homo sapiens, Table 1) was 74.27 ± 0.08 µM.

Turning to `O=C(Nc1ccc(-c2nc3c(c(N4CCOCC4)n2)CS(=O)(=O)CC3)cc1)c1cc(-c2cccc(F)c2)ccn1` [Compound 12b, N-(4-(4-Morpholino-7,8-dihydro-6,6-dioxide-5H-thiopyrano[4,3-d]pyrimidin-2-yl)phenyl)-4-(3-fluoro-phenyl) pyridinecarboxamide], the melting point was 281.5 to 283.8 °C.

`O=C(Nc1ccc(-c2nc3c(c(N4CCOCC4)n2)CS(=O)(=O)CC3)cc1)c1cc(-c2ccc(F)cc2F)ccn1` [Compound 12c, N-(4-(4-Morpholino-7,8-dihydro-6,6-dioxide-5H-thiopyrano[4,3-d]pyrimidin-2-yl)phenyl)-4-(2,4-difluorophenyl) picolinamide] had a melting point of 269 to 272.6 °C.

As for `O=C(Nc1ccc(-c2nc3c(c(N4CCOCC4)n2)CS(=O)(=O)CC3)cc1)c1cc(-c2ccc(C(F)(F)F)cc2)ccn1` [Compound 12d, N-(4-(4-Morpholino-7,8-dihydro-6,6-dioxide-5H-thiopyrano[4,3-d]pyrimidin-2-yl)phenyl)-4-(4-trifluoro-methylphenyl) pyridinecarboxamide], the melting point was > 300 °C.

The molecule `O=C(Nc1ccc(-c2nc3c(c(N4CCOCC4)n2)CS(=O)(=O)CC3)cc1)c1cc(-c2ccc(Cl)cc2)ccn1` [Compound 12e, N-(4-(4-Morpholino-7,8-dihydro-6,6-dioxide-5H-thiopyrano[4,3-d]pyrimidin-2-yl)phenyl)-4-(4-chloro-phenyl) pyridinecarboxamide] registered a melting point of 266.8 to 268.8 °C.

For `O=C(Nc1ccc(-c2nc3c(c(N4CCOCC4)n2)CS(=O)(=O)CC3)cc1)c1cc(-c2ccc(F)cc2)ccn1` [Compound 12f, N-(4-(4-Morpholino-7,8-dihydro-6,6-dioxide-5H-thiopyrano[4,3-d]pyrimidin-2-yl)phenyl)-4-(4-fluoro-phenyl) pyridincarboxamide], the melting point was > 300 °C.

In the case of `Cc1ccc(-c2ccnc(C(=O)Nc3ccc(-c4nc5c(c(N6CCOCC6)n4)CS(=O)(=O)CC5)cc3)c2)cc1` [Compound 12g, N-(4-(4-Morpholino-7,8-dihydro-6,6-dioxide-5H-thiopyrano[4,3-d]pyrimidin-2-yl)phenyl)-4-(4-methylphenyl) pyridinecarboxamide], the melting point fell in the range of 290.2 to 293.1 °C. In series [1] (setting [4]), this molecule showed an IC50 of 14.51 ± 0.1 µM. Besides, in series [2] (Homo sapiens, Table 1), 64.71 ± 0.17 µM corresponded to half-maximal inhibition (IC50). The IC50 in series [3] (setting [5]) came to 28.9 ± 1.29 µM.

Molecule `COc1ccc(-c2ccnc(C(=O)Nc3ccc(-c4nc5c(c(N6CCOCC6)n4)CS(=O)(=O)CC5)cc3)c2)cc1` [Compound 12i, N-(4-(4-Morpholino-7,8-dihydro-6,6-dioxide-5H-thiopyrano[4,3-d]pyrimidin-2-yl)phenyl)-4-(4-methoxy-phenyl) pyridinecarboxamide] gave a melting point of 289 to 292.1 °C.

In turn, `COc1ccc(-c2cc(C(=O)Nc3ccc(-c4nc5c(c(N6CCOCC6)n4)CSCC5)cc3)ncn2)cc1` [Compound 13b] had a melting point of 210 to 212.7 °C. The IC50 in series [1] (setting [6]) was > 100 µM. Moreover, the IC50 in series [2] (Homo sapiens, Table 2) is > 100 µM. For the same molecule, the IC50 in series [3] (setting [7]) is > 100 µM.

Molecule `O=C(Nc1ccc(-c2nc3c(c(N4CCOCC4)n2)CSCC3)cc1)c1cc(-c2ccc(C(F)(F)F)cc2)ncn1` [Compound 13c] registered a melting point of 244.2 to 245.8 °C. Moreover, the IC50 in series [1] (setting [6]) is > 100 µM. The IC50 in series [2] (Homo sapiens, Table 2) is > 100 µM. Besides, in series [3] (setting [7]), the half-maximal inhibitory concentration (IC50) was > 100 µM.

`O=C(Nc1ccc(-c2nc3c(c(N4CCOCC4)n2)CSCC3)cc1)c1cc(-c2ccc(F)cc2)ncn1` [Compound 13d] returned a melting point of 237 to 239.3 °C. Further, the IC50 in series [1] (setting [6]) was > 100 µM. The IC50 in series [2] (Homo sapiens, Table 2) is > 100 µM. Also, the IC50 in series [3] (setting [7]) is > 100 µM.

As for `O=C(Nc1ccc(-c2nc3c(c(N4CCOCC4)n2)CSCC3)cc1)c1cc(-c2ccc(Br)cc2)ncn1` [Compound 13e], the melting point lay in the range of 251.8 to 255 °C. Further, the IC50 in series [1] (setting [6]) is > 100 µM. Moreover, the IC50 in series [2] (Homo sapiens, Table 2) was > 100 µM. The IC50 in series [3] (setting [7]) is > 100 µM.

Molecule `O=C(Nc1ccc(-c2nc3c(c(N4CCOCC4)n2)CSCC3)cc1)c1cc(-c2ccc(Cl)cc2)ncn1` [Compound 13f] had a melting point of 281.8 to 285 °C. Further, in series [1] (setting [6]), the IC50 was > 100 µM. Moreover, in series [2] (Homo sapiens, Table 2), the IC50 was > 100 µM. Further, the IC50 in series [3] (setting [7]) was > 100 µM.

Take `CS(=O)(=O)N1CCN(Cc2cc3nc(-c4cccc5[nH]ncc45)nc(N4CCOCC4)c3s2)CC1` [GDC-0941, reference compound]: the IC50 in series [1] (setting [4]) was found to be 6.99 ± 0.21 µM; in series [2] (Homo sapiens, Table 1), 0.2 ± 0.08 µM; in series [3] (setting [5]), 0.07 ± 0.03 µM.

Take “N-(4-(4-Morpholino-7,8-dihydro-5H-thiopyrano[4,3-d]pyrimidin-2-yl)phenyl)-6-(p-tolyl)pyrimidine-4-formamide [Compound 13a]”: the IC50 in series [1] (72 h, Table 2) is > 100 µM; in series [2] (Table 2) it was > 100 µM; in series [3] (72 h, Table 2) it was > 100 µM.

As for “N-(4-(4-Morpholino-7,8-dihydro-5H-thiopyrano[4,3-d]pyrimidin-2-yl)phenyl)-6-phenylpyridine-4-carboxamide [Compound 13g]”, the IC50 was > 100 µM in series [1] (72 h, Table 2); > 100 µM in series [2] (Table 2); > 100 µM in series [3] (72 h, Table 2).

For the origin of these results see PMC6273168, “Synthesis and Biological Evaluation of Novel 4-Morpholino-7,8-dihydro-5H-thiopyrano[4,3-d]pyrimidine Derivatives Bearing Phenylpyridine/ Phenylpyrimidine-Carboxamides” (Molecules, 2016).
